Key:
[1] = molecular target: T1, human sphingosine-1-phosphate receptor 1 (S1P1) (Homo sapiens (Human), UniProt P21453); test: Inhibition of cAMP production (HTRF cAMP HiRange), S1P1 CHO-K1 cells; format: cell-based; conditions: for Emax: CHO-K1, efficacy (SPAN) normalized to fingolimod, read-out: hS1P1 cAMP SPAN; for hS1P1 cAMP pEC50: inhibition of cAMP production, S1P1 CHO-K1 cells
Method in brief: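 CHO-K1 cells stably co-expressing human S1P1 (C-terminal Prolink tag) and EA-β-arrestin2 were grown in AssayComplete Media 6 at 37° C. and 5% CO2, plated, and incubated overnight. Agonist-driven inhibition of intracellular cAMP was read by TR-FRET with the HTRF cAMP HiRange kit on a PheraStar reader. Potency is pEC50, and efficacy (SPAN) is normalized to fingolimod.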
Target sequence in this assay (P21453 whole entry, looked up): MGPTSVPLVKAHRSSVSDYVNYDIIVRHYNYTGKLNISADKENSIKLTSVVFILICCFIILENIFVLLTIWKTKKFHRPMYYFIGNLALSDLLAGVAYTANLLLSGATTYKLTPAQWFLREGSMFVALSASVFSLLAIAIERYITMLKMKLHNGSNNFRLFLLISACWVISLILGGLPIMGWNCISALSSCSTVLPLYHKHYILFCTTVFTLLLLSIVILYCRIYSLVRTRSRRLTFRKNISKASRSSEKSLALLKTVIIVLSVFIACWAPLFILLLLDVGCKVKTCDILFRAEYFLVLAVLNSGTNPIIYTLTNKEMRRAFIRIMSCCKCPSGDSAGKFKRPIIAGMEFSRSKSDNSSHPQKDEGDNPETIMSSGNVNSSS

[2] = tested on: peripheral blood lymphocytes; test: Peripheral blood lymphocytes (lymphopenia) in c57bl/6 mice, acute and chronic studies; format: in vivo; conditions: for Lymphopenia: Effect and Doses, mg/kg, sc: peripheral blood lymphocytes vs vehicle; for Lymphopenia: Effect and Doses, mg/kg, sc (change in peripheral blood lymphocytes): significance vs vehicle given
Protocol: Compounds were tested for changes in peripheral blood lymphocytes in c57bl/6 mice. In acute studies, animals (n=5/group) were dosed subcutaneously with test compound at a dose of 3 mg/kg. Animals were sacrificed at specific time points and 500 μl of whole blood was collected in EDTA (K2) Eppendorf tubes. Blood was stored on ice and shipped immediately overnight delivery to Charles River Laboratories for analysis. CRL ran samples through their WBC/differential panel on an Advia 120 instrument. We received peripheral lymphocyte counts (10^3 cells/μl) for each blood sample. Treatment group means were compared to a vehicle treatment group for statistical significance. In chronic studies, animals (n=6-8/group) were dosed subcutaneously with test compound either in a dose response paradigm (highest dose of 3 mg/kg) or in a screening paradigm at 6 mg/kg for seven days. On the seventh day, animals were sacrificed 45 minutes after the final dose. Whole blood was collected and analyzed as described for acute studies. […]

[3] = molecular target: T1, human sphingosine-1-phosphate receptor 1 (S1P1); test: β-Arrestin2 recruitment assay (PathHunter), S1P1 CHO-K1 cells; format: cell-based; conditions: for Emax: CHO-K1, efficacy (SPAN) normalized to fingolimod, read-out: hS1P1 B-arrestin2 SPAN; for hS1P1 B-arrestin2 pEC50: β-arrestin2 recruitment, S1P1 CHO-K1 cells
Method in brief: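 Enzyme-fragment complementation read-out: agonist-driven β-arrestin2 binding to ProLink-tagged human S1P1 in stable CHO-K1 cells restores β-galactosidase, measured 1 h at room temperature after a 60 min 37° C. compound incubation. Potency as pEC50, efficacy relative to fingolimod (SPAN).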
Target sequence in this assay (P21453 whole entry, looked up): as above
Target sequence in this assay (P32121 whole entry partner, looked up): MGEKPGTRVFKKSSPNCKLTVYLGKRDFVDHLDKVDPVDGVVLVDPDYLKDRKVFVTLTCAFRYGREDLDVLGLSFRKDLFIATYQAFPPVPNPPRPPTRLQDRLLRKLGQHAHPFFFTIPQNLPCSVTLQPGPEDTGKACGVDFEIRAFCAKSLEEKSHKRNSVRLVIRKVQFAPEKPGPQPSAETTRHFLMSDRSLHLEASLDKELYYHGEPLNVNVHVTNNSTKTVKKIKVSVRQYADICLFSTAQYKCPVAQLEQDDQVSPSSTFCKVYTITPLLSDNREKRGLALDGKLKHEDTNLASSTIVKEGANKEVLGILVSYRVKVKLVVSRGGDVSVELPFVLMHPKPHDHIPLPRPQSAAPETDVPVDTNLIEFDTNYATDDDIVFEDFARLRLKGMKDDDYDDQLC

[4] = tested on: paclitaxel induced peripheral neuropathy; test: Reversal of allodynia induced by paclitaxel in mice (s.c. or p.o., von Frey frequency method); format: in vivo, c57bl/6 mice; conditions: Mus musculus; for inhibition in vivo at 1 mg/kg: sc, 0.5 h, 1 mg/kg s.c., tested 30 min after dosing, read-out: Screen @ 1 mg/kg sc (% MPE); for inhibition in vivo at 3 mg/kg: po, 1 h, 3 mg/kg p.o., tested 60 min after dosing, read-out: Screen @ 3 mg/kg po (% MPE)
Method in brief: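 Neuropathy was induced in mice by paclitaxel (6 mg/kg i.p., days 1, 3, 5, 7) or oxaliplatin (4 mg/kg i.p., days 1-5), with re-testing about 14 days later. Compounds were given s.c. (tested at 30 min) or p.o. (tested at 60 min; paclitaxel only). A 0.4 g von Frey filament was applied ten times per paw, and % non-response was converted to % MPE.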

[5] = molecular target: human sphingosine-1-phosphate receptor 3 (S1P3) (Homo sapiens (Human), UniProt Q99500); test: Inhibition of cAMP production (HTRF), S1P3 CHO-K1 cells; format: cell-based; conditions: for hS1P3 cAMP pEC50: inhibition of cAMP production
Protocol: (§1) Stable clonal Chinese hamster ovary K1 (CHO-K1) cells co-expressing EA-β-arrestin2 and the human sphingosine-1-phosphate receptor 2 (NM_004230.3, S1P2), human sphingosine-1-phosphate receptor 3 (NM_005226, S1P3) and sphingosine-1-phosphate receptor 5 (NM_001166215.1, S1P5) with a C-terminal Prolink™ tag were purchased from DiscoverX corporation (S1P2: Cat #93-0256C2, S1P3: Cat #93-0217C2, S1P5: Cat #93-0583C2).
(§2) Cell lines were cultured in AssayComplete™ Media 6 (DiscoverX Corporation, Cat #: 920018GF2) at 37° C. and 5% CO2 in a humidified CO2 and temperature-controlled incubator. To begin assay plating, cells were washed with dulbecco's phosphate buffered saline (CellGro, Cat #: 21-031-CV) and lifted from the culturing flask by incubation (37° C., 5 min) with CellStripper (Cellgro, Cat #: 25-056-CI). […] Plated cells were incubated overnight at 37° C. and 5% CO2 in a humidified CO2 and temperature-controlled incubator.
(§3) S1P3 and S1P5 Agonist-promoted G-protein responses were determined by measuring changes in intracellular cAMP using the HTRF® cAMP HiRange kit (CisBio, Cat #: 62AM6PEJ) based on time-resolved fluorescence resonance energy transfer (TR-FRET) technology. […] Following a 30-minute room temperature incubation the components of the cAMP HiRange kit were added as per the manufacturer's instructions. After an hour incubation at room temperature, plates were analyzed by a BMG PheraStar microplate reader.
(§4) The tables below include the efficacy of the compound as compared to a positive control, referred to as “SPAN”. These values are normalized to fingolimod, a known agonist of the sphingosine-1-phosphate 3 and 5 receptor or CYM5520, a known agonist of the sphingosine-1-phosphate 2 receptor. The tables also include potency values (pEC50) for modulating discrete receptor-mediated activities (inhibition of cAMP production or inositol monophosphate accumulation).

[6] = molecular target: human sphingosine-1-phosphate receptor 2 (S1P2) (Homo sapiens (Human), UniProt O95136); test: Inositol monophosphate production (IP-one TB kit), S1P2 CHO-K1 cells; format: cell-based; conditions: for hS1P2 IP-one pEC50: inositol monophosphate accumulation
Protocol: as §1, §2
S1P2 Agonist-promoted G-protein responses were determined by measuring changes in intracellular inositol monophosphate using the IP-one TB kit (CisBio, Cat #: 62IPAPEJ) based on time-resolved fluorescence resonance energy transfer (TR-FRET) technology. AssayComplete™ Cell Plating 2 Reagent was removed and replaced with 1× IP-one stimulation buffer (as per manufacturer's instructions) along with test or control compounds at the desired concentrations. Following a 60-minute incubation at 37° C. and 5% CO2 in a humidified CO2 and temperature-controlled incubator, the components of the IP-one TB kit were added as per the manufacturer's instructions. After an hour incubation at room temperature, plates were analyzed by a BMG PheraStar microplate reader.
as §4

[7] = molecular target: sphingosine-1-phosphate receptor 5 (S1P5) (Homo sapiens (Human), UniProt Q9H228); test: Inhibition of cAMP production (HTRF), S1P5 CHO-K1 cells; format: cell-based
Protocol: as §1, §2, §3, §4

Sequence of human sphingosine-1-phosphate receptor 2 (S1P2) (O95136 whole entry): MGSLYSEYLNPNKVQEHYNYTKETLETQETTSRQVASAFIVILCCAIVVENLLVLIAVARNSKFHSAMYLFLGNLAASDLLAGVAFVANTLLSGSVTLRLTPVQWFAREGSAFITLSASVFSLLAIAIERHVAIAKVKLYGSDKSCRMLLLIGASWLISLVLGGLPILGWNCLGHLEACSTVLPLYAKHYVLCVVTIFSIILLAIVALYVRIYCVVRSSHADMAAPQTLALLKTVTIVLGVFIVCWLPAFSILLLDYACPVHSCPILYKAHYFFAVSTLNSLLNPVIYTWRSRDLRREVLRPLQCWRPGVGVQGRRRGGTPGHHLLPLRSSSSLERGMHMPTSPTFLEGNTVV
Sequence of human sphingosine-1-phosphate receptor 3 (S1P3) (Q99500 whole entry): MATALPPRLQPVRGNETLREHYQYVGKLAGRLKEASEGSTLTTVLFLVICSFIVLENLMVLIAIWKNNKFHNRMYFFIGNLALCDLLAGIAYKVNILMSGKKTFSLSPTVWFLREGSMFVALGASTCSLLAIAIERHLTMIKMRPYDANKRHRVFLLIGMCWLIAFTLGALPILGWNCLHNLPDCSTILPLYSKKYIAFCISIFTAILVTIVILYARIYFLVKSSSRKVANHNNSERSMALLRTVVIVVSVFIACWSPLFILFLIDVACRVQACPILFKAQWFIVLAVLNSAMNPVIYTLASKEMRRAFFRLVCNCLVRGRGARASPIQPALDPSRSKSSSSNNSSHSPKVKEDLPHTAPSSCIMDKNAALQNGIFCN
Sequence of sphingosine-1-phosphate receptor 5 (S1P5) (Q9H228 whole entry): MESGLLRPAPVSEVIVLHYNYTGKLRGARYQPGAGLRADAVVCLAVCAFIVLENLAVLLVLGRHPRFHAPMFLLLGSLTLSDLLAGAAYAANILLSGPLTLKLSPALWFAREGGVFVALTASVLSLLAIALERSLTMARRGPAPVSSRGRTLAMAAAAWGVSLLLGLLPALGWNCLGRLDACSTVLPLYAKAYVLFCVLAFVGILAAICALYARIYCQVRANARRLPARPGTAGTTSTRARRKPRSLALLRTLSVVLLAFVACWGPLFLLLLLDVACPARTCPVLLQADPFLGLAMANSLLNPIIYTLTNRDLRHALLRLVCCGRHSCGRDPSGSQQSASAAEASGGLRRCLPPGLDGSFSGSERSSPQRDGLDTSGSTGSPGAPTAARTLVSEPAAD

Structure (SMILES) | hS1P1 cAMP pEC50 [1] | Lymphopenia: Effect and Doses, mg/kg, sc ([2]; 6 mg/kg sc, 7 days) | hS1P1 B-arrestin2 pEC50 [3] | inhibition in vivo at 3 mg/kg [4] [%] | other results
Cc1cnccc1-c1nc(-c2ccc3c(c2)nnn3C(C)C)no1 [Compound 8, 3-(1-isopropyl-1H-benzo[d][1,2,3]triazol-5-yl)-5-(3-methylpyridin-4-yl)-1,2,4-oxadiazole] | <6.5 | no change: 6 mg/kg, 7 days | <5 | – | Emax [1]: < 75%; Emax [3]: < 75%; inhibition in vivo at 1 mg/kg [4]: < 50%
COc1cccc(-c2noc(-c3ccc4c(c3)nnn4C(C)C)n2)n1 [Compound 19, 5-[3-(6-methoxypyridin-2-yl)-1,2,4-oxadiazol-5-yl]-1-(propan-2-yl)-1H-1,2,3-benzotriazole] | <6.5 | no change: 6 mg/kg, 7 days | >5 | – | –
CC(C)Oc1ccc(-c2nc(-c3ccc4c(c3)nnn4C(C)C)no2)cc1C#N [Compound 22, 2-isopropoxy-5-(3-(1-isopropyl-1H-benzo[d][1,2,3]triazol-5-yl)-1,2,4-oxadiazol-5-yl)benzonitrile] | – | – | – | – | Lymphopenia: Effect and Doses, mg/kg, sc ([2]; 3 mg/kg sc, 7 days): no change: 3 mg/kg, 7 days
Cc1ccccc1-c1noc(-c2ccc3c(c2)nnn3C(C)(C)C)n1 [Compound 59, 1-tert-butyl-5-[3-(2-methylphenyl)-1,2,4-oxadiazol-5-yl]-1H-1,2,3-benzotriazole] | >6.5 | no change: 6 mg/kg, 7 days | >5 | – | –
Cc1ccccc1-c1noc(-c2ccc3c(c2)nnn3CC(C)C)n1 [Compound 96, 5-[3-(2-methylphenyl)-1,2,4-oxadiazol-5-yl]-1-(2-methylpropyl)-1H-1,2,3-benzotriazole] | >6.5 | no change: 6 mg/kg, 7 days | >5 | – | Emax [1]: > 75%; Emax [3]: > 75%; inhibition in vivo at 1 mg/kg [4]: > 50%
Cc1cnc(-c2nc(-c3ccc4c(c3)nnn4C(C)C)no2)cn1 [Compound 234, 3-(1-isopropyl-1H-benzo[d][1,2,3]triazol-5-yl)-5-(5-methylpyrazin-2-yl)-1,2,4-oxadiazole] | <6.5 | no change: 6 mg/kg, 7 days | <5 | – | –
COc1ccccc1-c1coc(-c2ccc3c(c2)nnn3C(C)C)n1 [Compound 277, 5-[4-(2-methoxyphenyl)-1,3-oxazol-2-yl]-1-(propan-2-yl)-1H-1,2,3-benzotriazole] | >6.5 | – | >5 | – | Emax [1]: > 75%; Emax [3]: > 75%; Emax ([5]; CHO-K1, efficacy normalized to fingolimod, read-out: hS1P3 cAMP SPAN): < 50%; hS1P3 cAMP pEC50 [5]: <5.0; Emax ([6]; CHO-K1, efficacy normalized to CYM5520, read-out: hS1P2 IP-one SPAN): > 50%; hS1P2 IP-one pEC50 [6]: <5.0; inhibition in vivo at 1 mg/kg [4]: > 50%; Emax ([7]; CHO-K1, efficacy normalized to fingolimod, read-out: hS1P5 cAMP SPAN): < 50%; hS1P5 cAMP pEC50 ([7]; inhibition of cAMP production, hS1P5): <5.0
CC(F)(F)CNc1ccc(-c2nnc(-c3ccc4[nH]ncc4c3)o2)cc1C#N [Compound 355, 2-[(2,2-difluoropropyl)amino]-5-[5-(1H-indazol-5-yl)-1,3,4-oxadiazol-2-yl]benzonitrile] | >6.5 | no change: 6 mg/kg, 7 days | >5 | > 50 | –
CC(C)Nc1ccc(-c2nnc(-c3ccc4[nH]cnc4c3)o2)cc1C#N [Compound 356, 5-[5-(1H-1,3-benzodiazol-5-yl)-1,3,4-oxadiazol-2-yl]-2-[(propan-2-yl)amino]benzonitrile] | >6.5 | no change: 6 mg/kg, 7 days | >5 | > 50 | Emax [1]: > 75%; Emax [3]: > 75%
CN1C(=O)CCc2cc(-c3nc(-c4cccnc4)no3)ccc21 [Compound 384, 1-methyl-6-[3-(pyridin-3-yl)-1,2,4-oxadiazol-5-yl]-1,2,3,4-tetrahydroquinolin-2-one] | <6.5 | – | <5 | – | Lymphopenia: Effect and Doses, mg/kg, sc ([2]; acute, 3 mg/kg sc, 45 min and 2 hr): no change: 3 mg/kg; 45 min and 2 hr
N#Cc1cc(-c2nc(-c3ccc4oc(=O)[nH]c4c3)no2)ccc1NCC1CC1 [Compound 423, 2-((cyclopropylmethyl)amino)-5-(3-(2-oxo-2,3-dihydrobenzo[d]oxazol-5-yl)-1,2,4-oxadiazol-5-yl)benzonitrile] | >6.5 | no change: 6 mg/kg, 7 days | >5 | > 50 | hS1P3 cAMP pEC50 [5]: >5.0; hS1P2 IP-one pEC50 [6]: >5.0
CCC1(CC)CC(=O)c2cc(-c3nc(-c4ccc(NC(C)=O)cc4OC)no3)ccc2O1 [Compound 531, N-{4-[5-(2,2-diethyl-4-oxo-3,4-dihydro-2H-1-benzopyran-6-yl)-1,2,4-oxadiazol-3-yl]-3-methoxyphenyl}acetamide] | >6.5 | no change: 6 mg/kg, 7 days | >5 | > 50 | –
COc1cc(NC(C)=O)ccc1-c1noc(-c2ccc(NC(C)C)c(C#N)c2)n1 [Compound 731, N-[4-(5-{3-cyano-4-[(propan-2-yl)amino]phenyl}-1,2,4-oxadiazol-3-yl)-3-methoxyphenyl]acetamide] | – | – | – | > 50 | Lymphopenia: Effect and Doses, mg/kg, sc (change in peripheral blood lymphocytes) ([2]; 6 mg/kg sc, 7 days): −78% stat sig: 6 mg/kg, 7 days
CC(C)Nc1ccc(-c2ncc(-c3cccnc3)cn2)cc1C#N [Compound 737, 2-(isopropylamino)-5-(5-(pyridin-3-yl)pyrimidin-2-yl)benzonitrile] | – | – | – | – | Lymphopenia: Effect and Doses, mg/kg, sc (change in peripheral blood lymphocytes) ([2]; 6 mg/kg sc, 7 days): −40% not stat sig: 6 mg/kg, 7 days
